# In patent US20120040966A1, “ANTI-VIRAL COMPOUNDS, TREATMENT, AND ASSAY” (priority 2008, published 2012):
# pEC50, pIC50: −log10 of the molar value.
# Test system: influenza strain A/VN/1203/2004 (H5N1)
# Experiment: microbe, parasite or virus in culture
# Assay type: cell-based, Influenza A virus (H5N1)
# Details: Influenza A virus, H5N1, MDCK, 72 h, read-out: H5N1 EC50 (@ 50% Via)
row,SMILES,pEC50
1,O=C1NC2=C(COc3ccccc32)C(c2ccc(Cl)c(Cl)c2)N1 (centres unmarked) [compound 22404],5.80
2,O=C1NC2=C(CCc3ccccc32)C(c2ccc(Cl)cc2Cl)N1 (centres unmarked) [compound 22406],< 4.30
3,O=C1NC2=C(C(c3ccc4c(c3)OCO4)N1)C(c1ccccc1)Oc1ccccc12 (centres unmarked) [compound 22421],< 4.30
4,COc1cc(C2NC(=O)NC3=C2CCc2ccccc23)ccc1F (centres unmarked) [compound 22517],5.02
5,COc1ccc(C2NC(=O)NC3=C2CCc2ccccc23)cc1F (centres unmarked) [compound 22522],6.59
6,COc1ccc(C2NC(=O)NC3=C2CCc2ccccc23)cc1OC (centres unmarked) [compound 22524],5.13
7,COc1ccc(C2NC(=O)NC3=C2CCc2c(C)cc(C)cc23)cc1Br (centres unmarked) [compound 22526],< 4.32
8,O=C1NC2=C(COc3ccccc32)C(c2ccc(O)c(Br)c2)N1 (centres unmarked) [compound 22701],7.58
9,COc1c(Br)cc(C2NC(=O)NC3=C2CCc2ccccc23)cc1Br (centres unmarked) [compound 22703],4.42
10,CCOc1c(Br)cc(C2NC(=O)NC3=C2CCc2ccccc23)cc1Br (centres unmarked) [compound 22704],< 4.40
11,CCOc1ccc(C2NC(=O)NC3=C2CCc2ccccc23)cc1C (centres unmarked) [compound 22711],5.89
12,COc1ccc(C2NC(=O)NC3=C2CCc2c(OC)cccc23)cc1Br (centres unmarked) [compound 22722],< 7.21
13,COc1ccc(C2NC(=O)NC3=C2CCCc2ccccc23)cc1Br (centres unmarked) [compound 23096],6.62
14,CC(=O)Oc1ccc(C2NC(=O)NC3=C2COc2ccccc23)cc1Br (centres unmarked) [compound 23097],7.03
15,O=C1NC2=C(COc3ccccc32)C(c2ccc(F)c(Br)c2)N1 (centres unmarked) [compound 23098],5.92
16,COc1ccc(C2NC(=O)NC3=C2CCc2ncccc23)cc1Br (centres unmarked) [compound 23102],4.84

# Same assay, conditions: Influenza A virus, H5N1, MDCK, 72 h, read-out: H5N1 EC50 (Inf Pt)
row,SMILES,pEC50
1,O=C1NC2=C(CCc3ccccc32)C(c2ccc(Cl)cc2Cl)N1 (centres unmarked) [compound 22406],< 4.30
2,O=C1NC2=C(C(c3ccc4c(c3)OCO4)N1)C(c1ccccc1)Oc1ccccc12 (centres unmarked) [compound 22421],< 4.30
3,COc1cc(C2NC(=O)NC3=C2CCc2ccccc23)ccc1F (centres unmarked) [compound 22517],5.14
4,COc1ccc(C2NC(=O)NC3=C2CCc2ccccc23)cc1F (centres unmarked) [compound 22522],6.72
5,COc1ccc(C2NC(=O)NC3=C2CCc2ccccc23)cc1OC (centres unmarked) [compound 22524],5.15
6,COc1ccc(C2NC(=O)NC3=C2CCc2c(C)cc(C)cc23)cc1Br (centres unmarked) [compound 22526],< 4.32
7,O=C1NC2=C(COc3ccccc32)C(c2ccc(O)c(Br)c2)N1 (centres unmarked) [compound 22701],7.68
8,COc1c(Br)cc(C2NC(=O)NC3=C2CCc2ccccc23)cc1Br (centres unmarked) [compound 22703],< 4.40
9,CCOc1c(Br)cc(C2NC(=O)NC3=C2CCc2ccccc23)cc1Br (centres unmarked) [compound 22704],< 4.40
10,CCOc1ccc(C2NC(=O)NC3=C2CCc2ccccc23)cc1C (centres unmarked) [compound 22711],5.92
11,COc1ccc(C2NC(=O)NC3=C2CCc2c(OC)cccc23)cc1Br (centres unmarked) [compound 22722],< 7.21
12,COc1ccc(C2NC(=O)NC3=C2CCCc2ccccc23)cc1Br (centres unmarked) [compound 23096],6.55
13,CC(=O)Oc1ccc(C2NC(=O)NC3=C2COc2ccccc23)cc1Br (centres unmarked) [compound 23097],6.99
14,O=C1NC2=C(COc3ccccc32)C(c2ccc(F)c(Br)c2)N1 (centres unmarked) [compound 23098],5.89

# Same assay, conditions: read-out: H5N1 EC50 (@ 50% Via)
row,SMILES,pEC50
1,O=C1NC2=C(COc3ccccc32)C(c2ccc(Cl)c(Cl)c2)N1 (centres unmarked) [compound 22404],6.03
2,O=C1NC2=C(COc3ccccc32)C(c2ccc(O)c(Br)c2)N1 (centres unmarked) [compound 22701],7.57

# Same assay, conditions: read-out: H5N1 EC50 (Inf Pt)
row,SMILES,pEC50
1,O=C1NC2=C(COc3ccccc32)C(c2ccc(O)c(Br)c2)N1 (centres unmarked) [compound 22701],7.57

# Test system: Influenza virus strain A/CA/04/2009 (H1N1)
# Experiment: organism not typed
# Assay type: cell-based
# Details: MDCK, 72 h, read-out: H1N1 EC50 (@ 50% Via)
row,SMILES,pEC50
1,O=C1NC2=C(COc3ccccc32)C(c2ccc(Cl)c(Cl)c2)N1 (centres unmarked) [compound 22404],< 4.30
2,O=C1NC2=C(CCc3ccccc32)C(c2ccc(Cl)cc2Cl)N1 (centres unmarked) [compound 22406],< 4.30
3,O=C1NC2=C(C(c3ccc4c(c3)OCO4)N1)C(c1ccccc1)Oc1ccccc12 (centres unmarked) [compound 22421],< 4.30
4,COc1cc(C2NC(=O)NC3=C2CCc2ccccc23)ccc1F (centres unmarked) [compound 22517],< 4.30
5,COc1ccc(C2NC(=O)NC3=C2CCc2ccccc23)cc1F (centres unmarked) [compound 22522],5.42
6,COc1ccc(C2NC(=O)NC3=C2CCc2ccccc23)cc1OC (centres unmarked) [compound 22524],4.41
7,COc1ccc(C2NC(=O)NC3=C2CCc2c(C)cc(C)cc23)cc1Br (centres unmarked) [compound 22526],< 4.30
8,O=C1NC2=C(COc3ccccc32)C(c2ccc(O)c(Br)c2)N1 (centres unmarked) [compound 22701],5.80
9,COc1c(Br)cc(C2NC(=O)NC3=C2CCc2ccccc23)cc1Br (centres unmarked) [compound 22703],< 4.40
10,CCOc1c(Br)cc(C2NC(=O)NC3=C2CCc2ccccc23)cc1Br (centres unmarked) [compound 22704],< 4.40
11,CCOc1ccc(C2NC(=O)NC3=C2CCc2ccccc23)cc1C (centres unmarked) [compound 22711],4.43
12,COc1ccc(C2NC(=O)NC3=C2CCc2c(OC)cccc23)cc1Br (centres unmarked) [compound 22722],5.96
13,COc1ccc(C2NC(=O)NC3=C2CCCc2ccccc23)cc1Br (centres unmarked) [compound 23096],6.82
14,CC(=O)Oc1ccc(C2NC(=O)NC3=C2COc2ccccc23)cc1Br (centres unmarked) [compound 23097],6.00
15,O=C1NC2=C(COc3ccccc32)C(c2ccc(F)c(Br)c2)N1 (centres unmarked) [compound 23098],< 4.40
16,COc1ccc(C2NC(=O)NC3=C2CCc2ncccc23)cc1Br (centres unmarked) [compound 23102],< 4.40

# Test system: Madin Darby Canine Kidney (MDCK) cells
# Experiment: cells
# Assay type: cell-based
# Details: Canis lupus familiaris, MDCK, read-out: IC50 (toxicity)
row,SMILES,pIC50
1,O=C1NC2=C(COc3ccccc32)C(c2ccc(Cl)c(Cl)c2)N1 (centres unmarked) [compound 22404],< 4.30
2,O=C1NC2=C(CCc3ccccc32)C(c2ccc(Cl)cc2Cl)N1 (centres unmarked) [compound 22406],< 4.30
3,O=C1NC2=C(C(c3ccc4c(c3)OCO4)N1)C(c1ccccc1)Oc1ccccc12 (centres unmarked) [compound 22421],< 4.30
4,COc1cc(C2NC(=O)NC3=C2CCc2ccccc23)ccc1F (centres unmarked) [compound 22517],< 4.30
5,COc1ccc(C2NC(=O)NC3=C2CCc2ccccc23)cc1F (centres unmarked) [compound 22522],< 4.30
6,COc1ccc(C2NC(=O)NC3=C2CCc2ccccc23)cc1OC (centres unmarked) [compound 22524],< 4.30
7,COc1ccc(C2NC(=O)NC3=C2CCc2c(C)cc(C)cc23)cc1Br (centres unmarked) [compound 22526],5.16
8,O=C1NC2=C(COc3ccccc32)C(c2ccc(O)c(Br)c2)N1 (centres unmarked) [compound 22701],< 4.70
9,COc1c(Br)cc(C2NC(=O)NC3=C2CCc2ccccc23)cc1Br (centres unmarked) [compound 22703],< 4.40
10,CCOc1c(Br)cc(C2NC(=O)NC3=C2CCc2ccccc23)cc1Br (centres unmarked) [compound 22704],< 4.40
11,CCOc1ccc(C2NC(=O)NC3=C2CCc2ccccc23)cc1C (centres unmarked) [compound 22711],< 4.30
12,COc1ccc(C2NC(=O)NC3=C2CCc2c(OC)cccc23)cc1Br (centres unmarked) [compound 22722],< 7.21
13,COc1ccc(C2NC(=O)NC3=C2CCCc2ccccc23)cc1Br (centres unmarked) [compound 23096],< 4.40
14,CC(=O)Oc1ccc(C2NC(=O)NC3=C2COc2ccccc23)cc1Br (centres unmarked) [compound 23097],< 4.40
15,O=C1NC2=C(COc3ccccc32)C(c2ccc(F)c(Br)c2)N1 (centres unmarked) [compound 23098],< 4.40
16,COc1ccc(C2NC(=O)NC3=C2CCc2ncccc23)cc1Br (centres unmarked) [compound 23102],< 4.40
